Test results from the NIST ThermoML archive (doi:10.1016/j.jct.2006.07.022).
± gives the expanded uncertainty stated by the source.

Assay: xn = mol fraction of the nth substance listed
Conditions: 101 kPa, Liquid

CN(C)C=O [dimethylformamide] + Cc1ccccc1
mass density (293.15 K, x2 = 0): 948.58 ± 0.25 kg/m3 | mass density (293.15 K, x2 = 0.0587): 943.21 ± 0.27 kg/m3 | mass density (293.15 K, x2 = 0.0924): 940.15 ± 0.29 kg/m3 | mass density (293.15 K, x2 = 0.1596): 934.15 ± 0.32 kg/m3 | mass density (293.15 K, x2 = 0.2106): 929.65 ± 0.35 kg/m3 | mass density (293.15 K, x2 = 0.2706): 924.43 ± 0.38 kg/m3 | mass density (293.15 K, x2 = 0.3202): 920.16 ± 0.41 kg/m3 | mass density (293.15 K, x2 = 0.3823): 914.89 ± 0.45 kg/m3 | mass density (293.15 K, x2 = 0.4504): 909.2 ± 0.49 kg/m3 | mass density (293.15 K, x2 = 0.5171): 903.73 ± 0.54 kg/m3 | mass density (293.15 K, x2 = 0.5636): 899.97 ± 0.57 kg/m3 | mass density (293.15 K, x2 = 0.7212): 887.54 ± 0.69 kg/m3 | mass density (293.15 K, x2 = 0.7647): 884.19 ± 0.73 kg/m3 | mass density (293.15 K, x2 = 0.8114): 880.65 ± 0.77 kg/m3 | mass density (293.15 K, x2 = 0.8715): 876.16 ± 0.82 kg/m3 | mass density (293.15 K, x2 = 0.9412): 871.04 ± 0.88 kg/m3 | mass density (303.15 K, x2 = 0): 939.46 ± 0.26 kg/m3 | mass density (303.15 K, x2 = 0.0451): 935.32 ± 0.28 kg/m3 | mass density (303.15 K, x2 = 0.1012): 930.23 ± 0.31 kg/m3 | mass density (303.15 K, x2 = 0.1674): 924.31 ± 0.34 kg/m3 | mass density (303.15 K, x2 = 0.2151): 920.11 ± 0.36 kg/m3 | mass density (303.15 K, x2 = 0.2855): 913.98 ± 0.4 kg/m3 | mass density (303.15 K, x2 = 0.3484): 908.59 ± 0.44 kg/m3 | mass density (303.15 K, x2 = 0.4188): 902.65 ± 0.48 kg/m3 | mass density (303.15 K, x2 = 0.4876): 896.96 ± 0.53 kg/m3 | mass density (303.15 K, x2 = 0.5508): 891.8 ± 0.57 kg/m3 | mass density (303.15 K, x2 = 0.6134): 886.77 ± 0.62 kg/m3 | mass density (303.15 K, x2 = 0.6745): 881.95 ± 0.66 kg/m3 | mass density (303.15 K, x2 = 0.7512): 876 ± 0.72 kg/m3 | mass density (303.15 K, x2 = 0.8121): 871.36 ± 0.77 kg/m3 | mass density (303.15 K, x2 = 0.8614): 867.66 ± 0.82 kg/m3 | mass density (303.15 K, x2 = 0.9318): 862.47 ± 0.88 kg/m3 | mass density (313.15 K, x2 = 0): 930.12 ± 0.28 kg/m3 | mass density (313.15 K, x2 = 0.051): 925.45 ± 0.3 kg/m3 | mass density (313.15 K, x2 = 0.1112): 920.02 ± 0.32 kg/m3 | mass density (313.15 K, x2 = 0.1984): 912.27 ± 0.37 kg/m3 | mass density (313.15 K, x2 = 0.2511): 907.67 ± 0.39 kg/m3 | mass density (313.15 K, x2 = 0.3147): 902.18 ± 0.43 kg/m3 | mass density (313.15 K, x2 = 0.3784): 896.76 ± 0.47 kg/m3 | mass density (313.15 K, x2 = 0.4322): 892.26 ± 0.5 kg/m3 | mass density (313.15 K, x2 = 0.5053): 886.23 ± 0.55 kg/m3 | mass density (313.15 K, x2 = 0.5721): 880.8 ± 0.6 kg/m3 | mass density (313.15 K, x2 = 0.6427): 875.17 ± 0.65 kg/m3 | mass density (313.15 K, x2 = 0.7077): 870.09 ± 0.7 kg/m3 | mass density (313.15 K, x2 = 0.7812): 864.43 ± 0.75 kg/m3 | mass density (313.15 K, x2 = 0.8419): 859.84 ± 0.8 kg/m3 | mass density (313.15 K, x2 = 0.8932): 856.01 ± 0.85 kg/m3 | mass density (313.15 K, x2 = 0.9588): 851.2 ± 0.91 kg/m3 | mass density (323.15 K, x2 = 0): 920.55 ± 0.29 kg/m3 | mass density (323.15 K, x2 = 0.044): 916.54 ± 0.31 kg/m3 | mass density (323.15 K, x2 = 0.1062): 910.94 ± 0.33 kg/m3 | mass density (323.15 K, x2 = 0.1721): 905.1 ± 0.37 kg/m3 | mass density (323.15 K, x2 = 0.2314): 899.91 ± 0.4 kg/m3 | mass density (323.15 K, x2 = 0.2985): 894.12 ± 0.43 kg/m3 | mass density (323.15 K, x2 = 0.3647): 888.5 ± 0.47 kg/m3 | mass density (323.15 K, x2 = 0.4215): 883.74 ± 0.5 kg/m3 | mass density (323.15 K, x2 = 0.4874): 878.3 ± 0.55 kg/m3 | mass density (323.15 K, x2 = 0.5484): 873.34 ± 0.59 kg/m3 | mass density (323.15 K, x2 = 0.6014): 869.09 ± 0.62 kg/m3 | mass density (323.15 K, x2 = 0.6647): 864.08 ± 0.67 kg/m3 | mass density (323.15 K, x2 = 0.7314): 858.9 ± 0.72 kg/m3 | mass density (323.15 K, x2 = 0.7951): 854.03 ± 0.77 kg/m3 | mass density (323.15 K, x2 = 0.8654): 848.74 ± 0.83 kg/m3 | mass density (323.15 K, x2 = 0.9321): 843.83 ± 0.88 kg/m3 | mass density (333.15 K, x2 = 0): 910.75 ± 0.3 kg/m3 | mass density (333.15 K, x2 = 0.0512): 906.14 ± 0.33 kg/m3 | mass density (333.15 K, x2 = 0.112): 900.72 ± 0.35 kg/m3 | mass density (333.15 K, x2 = 0.1784): 894.89 ± 0.38 kg/m3 | mass density (333.15 K, x2 = 0.2351): 889.98 ± 0.41 kg/m3 | mass density (333.15 K, x2 = 0.2985): 884.55 ± 0.44 kg/m3 | mass density (333.15 K, x2 = 0.3514): 880.08 ± 0.47 kg/m3 | mass density (333.15 K, x2 = 0.4122): 875 ± 0.51 kg/m3 | mass density (333.15 K, x2 = 0.4841): 869.09 ± 0.55 kg/m3 | mass density (333.15 K, x2 = 0.5451): 864.14 ± 0.59 kg/m3 | mass density (333.15 K, x2 = 0.6015): 859.64 ± 0.63 kg/m3 | mass density (333.15 K, x2 = 0.6641): 854.71 ± 0.68 kg/m3 | mass density (333.15 K, x2 = 0.7321): 849.44 ± 0.73 kg/m3 | mass density (333.15 K, x2 = 0.7951): 844.64 ± 0.78 kg/m3 | mass density (333.15 K, x2 = 0.8621): 839.62 ± 0.83 kg/m3 | mass density (333.15 K, x2 = 0.9245): 835.02 ± 0.88 kg/m3 | mass density (343.15 K, x2 = 0): 900.73 ± 0.32 kg/m3 | mass density (343.15 K, x2 = 0.0632): 895.11 ± 0.34 kg/m3 | mass density (343.15 K, x2 = 0.1201): 890.11 ± 0.37 kg/m3 | mass density (343.15 K, x2 = 0.1854): 884.45 ± 0.4 kg/m3 | mass density (343.15 K, x2 = 0.2554): 878.46 ± 0.43 kg/m3 | mass density (343.15 K, x2 = 0.3114): 873.73 ± 0.46 kg/m3 | mass density (343.15 K, x2 = 0.3784): 868.14 ± 0.5 kg/m3 | mass density (343.15 K, x2 = 0.4552): 861.82 ± 0.55 kg/m3 | mass density (343.15 K, x2 = 0.5114): 857.28 ± 0.58 kg/m3 | mass density (343.15 K, x2 = 0.5662): 852.9 ± 0.62 kg/m3 | mass density (343.15 K, x2 = 0.6212): 848.55 ± 0.66 kg/m3 | mass density (343.15 K, x2 = 0.6812): 843.88 ± 0.7 kg/m3 | mass density (343.15 K, x2 = 0.7499): 838.61 ± 0.75 kg/m3 | mass density (343.15 K, x2 = 0.8021): 834.67 ± 0.79 kg/m3 | mass density (343.15 K, x2 = 0.8654): 829.95 ± 0.84 kg/m3 | mass density (343.15 K, x2 = 0.9421): 824.34 ± 0.9 kg/m3 | mass density (353.15 K, x2 = 0): 890.48 ± 0.34 kg/m3 | mass density (353.15 K, x2 = 0.0451): 886.53 ± 0.35 kg/m3 | mass density (353.15 K, x2 = 0.1023): 881.55 ± 0.38 kg/m3 | mass density (353.15 K, x2 = 0.1654): 876.13 ± 0.4 kg/m3 | mass density (353.15 K, x2 = 0.2215): 871.36 ± 0.43 kg/m3 | mass density (353.15 K, x2 = 0.2865): 865.91 ± 0.46 kg/m3 | mass density (353.15 K, x2 = 0.3412): 861.36 ± 0.49 kg/m3 | mass density (353.15 K, x2 = 0.4012): 856.44 ± 0.53 kg/m3 | mass density (353.15 K, x2 = 0.4687): 850.98 ± 0.57 kg/m3 | mass density (353.15 K, x2 = 0.5214): 846.76 ± 0.6 kg/m3 | mass density (353.15 K, x2 = 0.5841): 841.82 ± 0.64 kg/m3 | mass density (353.15 K, x2 = 0.6474): 836.89 ± 0.68 kg/m3 | mass density (353.15 K, x2 = 0.7142): 831.77 ± 0.73 kg/m3 | mass density (353.15 K, x2 = 0.7784): 826.93 ± 0.78 kg/m3 | mass density (353.15 K, x2 = 0.8451): 821.96 ± 0.83 kg/m3 | mass density (353.15 K, x2 = 0.9012): 817.86 ± 0.87 kg/m3
